Test results from patent publication US3931244A, “Thioureas” (John Wyeth & Brother Limited, priority 1973, dated 1976).

test system: appetite; test: Anorectic test: length of spaghetti eaten by starved mice during a two hour test period; type: in vivo; details: 100 mg/kg per os, dosed one hour before test, overnight-starved male mice, (mean length eaten by control - test)/control × 100
Protocol: The compounds of the invention may be tested for anorectic properties by the following procedure:
Groups of 8 or 10 male mice weighing 22-24 grams are starved overnight, although access to water is not restricted. The animals are dosed with the test drug or vehicle alone (control) one hour before they are placed individually into glass jars. The jars (100 mm diameter × 80 mm high) have lids fitted with a glass tube to accommodate a stick of spaghetti of approximate length of 450 mm. The glass tube is arranged such that only 5 mm of spaghetti is exposed for eating by the mouse. The length of spaghetti eaten during a two hour test period is indicative of the appetite of the animal.
When tested by this procedure at a dose of 100 mg/kg per os the following results were obtained: […]

| SMILES | % Inhibition of appetite [%] |
| --- | --- |
| C[C@@H](Cc1ccccc1)NC(=S)NC(=O)c1ccccc1 [Example 1, N-Benzoyl-N'-(1-methyl-2-phenyl)ethylthiourea] | 90 |
| O=C(NC(=S)NCCc1ccccc1)c1ccccc1 [Example 2, N-Benzoyl-N'-phenthylthiourea] | 49 |
| COc1ccc(C(=O)NC(=S)N[C@@H](C)Cc2ccccc2)cc1 [Example 3, N-(4-Methoxybenzoyl)-N'-(1-methyl-2-phenyl)ethylthiourea] | 52 |
| C[C@@H](Cc1ccccc1)NC(=S)NC(=O)c1cccc(C(F)(F)F)c1 [Example 4, N-(3-Trifluoromethylbenzoyl)-N'-(1-methyl-2-phenyl)-ethylthiourea] | 49 |
| C[C@@H](Cc1ccccc1)NC(=S)NC(=O)c1ccc(Cl)cc1 [Example 5, N-(4-Chlorobenzoyl)-N'-(1-methyl-2-phenyl)ethylthiourea] | 41 |
| C[C@@H](Cc1ccccc1)NC(=S)NC(=O)c1ccco1 [Example 6] | 40 |
| Cc1cccc(C(=O)NC(=S)N[C@@H](C)Cc2ccccc2)c1 [Example 7, N-(3-Toluoyl)-N'-(1-methyl-2-phenyl)ethylthiourea] | 53 |
